In PMC11377395 (Purinergic Signalling, 2024):

Target: T1, A3 adenosine receptor (hA3AR) (Homo sapiens, UniProt P0DMS8)
T1 construct: gene ADORA3
T1 sequence (P0DMS8 1-318): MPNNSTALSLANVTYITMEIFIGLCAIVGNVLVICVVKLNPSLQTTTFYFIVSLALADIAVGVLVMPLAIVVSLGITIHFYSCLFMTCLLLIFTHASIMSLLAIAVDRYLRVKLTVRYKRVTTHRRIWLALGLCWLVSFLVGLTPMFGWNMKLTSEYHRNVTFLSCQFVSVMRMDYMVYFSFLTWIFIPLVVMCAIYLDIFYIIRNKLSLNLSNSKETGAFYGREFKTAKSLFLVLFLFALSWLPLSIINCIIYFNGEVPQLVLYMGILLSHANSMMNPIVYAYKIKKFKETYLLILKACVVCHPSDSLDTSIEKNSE
Experiment: positive allosteric modulation of MRS5698 at […] in cAMP assay, CHO-hA3AR (also HL-60 cells)
Format: cell-based

With `Clc1ccc(Nc2nc3ccccc3c3[nH]c(C4CCCCC4)nc23)cc1Cl` [LUF6000, N-(3,4-Dichloro-phenyl)-2-cyclohexyl-1 H-imidazo[4,5-c]quinolin-4-amine] as the molecule, how does the “% Emax enhancement” value read?
The value was 19 % Emax enhancement.
